According to PubChem BioAssay (NCI):
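Where inhibition never reached the appropriate level, the endpoint shown equals the highest concentration tested. Otherwise, values were interpolated linearly from a five-concentration, 48-hour dose response in 96-well plates. TGI: concentration producing complete growth inhibition.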

Assays:
Test in all cases: NCI anticancer screen, dose series, 48 h
SF-539 CNS = system: SF-539 CNS
MDA-N = system: MDA-N
HL-60(TB) leukemia = system: HL-60(TB) leukemia
A498 renal = system: A498 renal
U251 CNS = system: U251 CNS
UACC-257 melanoma = system: UACC-257 melanoma
MCF7 breast = system: MCF7 breast
IGROV1 ovarian = system: IGROV1 ovarian
RPMI-8226 leukemia = system: RPMI-8226 leukemia
TK-10 renal = system: TK-10 renal
SF-268 CNS = system: SF-268 CNS
SNB-19 CNS = system: SNB-19 CNS
K-562 leukemia = system: K-562 leukemia
SF-295 CNS = system: SF-295 CNS
OVCAR-5 ovarian = system: OVCAR-5 ovarian
HOP-92 NSCLC = system: HOP-92 NSCLC
MALME-3M melanoma = system: MALME-3M melanoma
HCC-2998 colon = system: HCC-2998 colon
NCI/ADR-RES ovarian = system: NCI/ADR-RES ovarian
LOX IMVI melanoma = system: LOX IMVI melanoma
NCI-H226 lung = system: NCI-H226 lung
SW-620 colon = system: SW-620 colon
OVCAR-8 ovarian = system: OVCAR-8 ovarian
CAKI-1 renal = system: CAKI-1 renal
OVCAR-4 ovarian = system: OVCAR-4 ovarian
MDA-MB-435 = system: MDA-MB-435
NCI-H460 lung = system: NCI-H460 lung
PC-3 prostate = system: PC-3 prostate
SN12C renal = system: SN12C renal
COLO 205 colon = system: COLO 205 colon
SR leukemia = system: SR leukemia
HCT-15 colon = system: HCT-15 colon
KM12 colon = system: KM12 colon
HOP-62 NSCLC = system: HOP-62 NSCLC
SK-MEL-2 melanoma = system: SK-MEL-2 melanoma
CCRF-CEM leukemia = system: CCRF-CEM leukemia
SK-MEL-5 melanoma = system: SK-MEL-5 melanoma
SK-OV-3 ovarian = system: SK-OV-3 ovarian
T-47D breast = system: T-47D breast
786-0 renal = system: 786-0 renal
UO-31 renal = system: UO-31 renal
MOLT-4 leukemia = system: MOLT-4 leukemia
M14 melanoma = system: M14 melanoma
SK-MEL-28 melanoma = system: SK-MEL-28 melanoma
EKVX NSCLC = system: EKVX NSCLC
RXF 393 renal = system: RXF 393 renal
MDA-MB-231 breast = system: MDA-MB-231 breast
UACC-62 melanoma = system: UACC-62 melanoma
OVCAR-3 ovarian = system: OVCAR-3 ovarian
A549 NSCLC = system: A549 NSCLC
DU-145 prostate = system: DU-145 prostate
NCI-H522 lung = system: NCI-H522 lung
HCT-116 colon = system: HCT-116 colon
ACHN renal = system: ACHN renal
HT29 colon = system: HT29 colon
HS 578T breast = system: HS 578T breast
NCI-H23 lung = system: NCI-H23 lung
BT-549 breast = system: BT-549 breast
SNB-75 CNS = system: SNB-75 CNS

Cc1ccc(C(N)=Nc2ccccc2)cc1
TGI (SF-539 CNS): > 100 µM
TGI (MDA-N): > 100 µM
TGI (HL-60(TB) leukemia): > 100 µM
TGI (A498 renal): > 100 µM
TGI (U251 CNS): > 100 µM
TGI (UACC-257 melanoma): > 100 µM
TGI (MCF7 breast): > 100 µM
TGI (IGROV1 ovarian): > 100 µM
TGI (RPMI-8226 leukemia): > 100 µM
TGI (TK-10 renal): > 100 µM
TGI (SF-268 CNS): > 100 µM
TGI (SNB-19 CNS): > 100 µM
TGI (K-562 leukemia): > 100 µM
TGI (SF-295 CNS): > 100 µM
TGI (OVCAR-5 ovarian): > 100 µM
TGI (HOP-92 NSCLC): > 100 µM
TGI (MALME-3M melanoma): > 100 µM
TGI (HCC-2998 colon): 33.7 µM
TGI (NCI/ADR-RES ovarian): > 100 µM
TGI (LOX IMVI melanoma): > 100 µM
TGI (NCI-H226 lung): > 100 µM
TGI (SW-620 colon): > 100 µM
TGI (OVCAR-8 ovarian): > 100 µM
TGI (CAKI-1 renal): > 100 µM
TGI (OVCAR-4 ovarian): > 100 µM
TGI (MDA-MB-435): > 100 µM
TGI (NCI-H460 lung): > 100 µM
TGI (PC-3 prostate): > 100 µM
TGI (SN12C renal): > 100 µM
TGI (COLO 205 colon): 42.2 µM
TGI (SR leukemia): > 100 µM
TGI (HCT-15 colon): > 100 µM
TGI (KM12 colon): > 100 µM
TGI (HOP-62 NSCLC): > 100 µM
TGI (SK-MEL-2 melanoma): > 100 µM
TGI (CCRF-CEM leukemia): > 100 µM
TGI (SK-MEL-5 melanoma): > 100 µM
TGI (SK-OV-3 ovarian): > 100 µM
TGI (T-47D breast): > 100 µM
TGI (786-0 renal): > 100 µM
TGI (UO-31 renal): > 100 µM
TGI (MOLT-4 leukemia): > 100 µM
TGI (M14 melanoma): > 100 µM
TGI (SK-MEL-28 melanoma): > 100 µM
TGI (EKVX NSCLC): > 100 µM
TGI (RXF 393 renal): > 100 µM
TGI (MDA-MB-231 breast): > 100 µM
TGI (UACC-62 melanoma): > 100 µM
TGI (OVCAR-3 ovarian): > 100 µM
TGI (A549 NSCLC): > 100 µM
TGI (DU-145 prostate): > 100 µM
TGI (NCI-H522 lung): > 100 µM
TGI (HCT-116 colon): > 100 µM
TGI (ACHN renal): > 100 µM
TGI (HT29 colon): > 100 µM
TGI (HS 578T breast): > 100 µM
TGI (NCI-H23 lung): > 100 µM
TGI (BT-549 breast): > 100 µM
TGI (SNB-75 CNS): > 100 µM

CC(C)=CCC/C(C)=C/CC/C(C)=C/CCN(C)CCO
TGI (SF-539 CNS): 14.8 µM
TGI (MDA-N): 14.3 µM
TGI (HL-60(TB) leukemia): 3.68 µM
TGI (A498 renal): 29.3 µM
TGI (U251 CNS): 12.7 µM
TGI (UACC-257 melanoma): 21.7 µM
TGI (MCF7 breast): 7.13 µM
TGI (IGROV1 ovarian): 8.34 µM
TGI (RPMI-8226 leukemia): 11 µM
TGI (TK-10 renal): 19.4 µM
TGI (SF-268 CNS): 27 µM
TGI (SNB-19 CNS): 22.8 µM
TGI (K-562 leukemia): 3.24 µM
TGI (SF-295 CNS): 12.1 µM
TGI (OVCAR-5 ovarian): 21.1 µM
TGI (HOP-92 NSCLC): 9.9 µM
TGI (MALME-3M melanoma): 8.33 µM
TGI (HCC-2998 colon): 4.38 µM
TGI (NCI/ADR-RES ovarian): 26.7 µM
TGI (LOX IMVI melanoma): 14.3 µM
TGI (NCI-H226 lung): 38.7 µM
TGI (SW-620 colon): 18.4 µM
TGI (OVCAR-8 ovarian): 27.3 µM
TGI (CAKI-1 renal): 19.2 µM
TGI (OVCAR-4 ovarian): 29.1 µM
TGI (MDA-MB-435): 17.4 µM
TGI (NCI-H460 lung): 14.5 µM
TGI (PC-3 prostate): 18.2 µM
TGI (SN12C renal): 25.5 µM
TGI (COLO 205 colon): 3.25 µM
TGI (SR leukemia): 21.4 µM
TGI (HCT-15 colon): 13.7 µM
TGI (KM12 colon): 7.77 µM
TGI (HOP-62 NSCLC): 19.6 µM
TGI (SK-MEL-2 melanoma): 28.1 µM
TGI (CCRF-CEM leukemia): 8.65 µM
TGI (SK-MEL-5 melanoma): 3.44 µM
TGI (SK-OV-3 ovarian): 29.6 µM
TGI (T-47D breast): 7.4 µM
TGI (786-0 renal): 4.83 µM
TGI (UO-31 renal): 25.3 µM
TGI (MOLT-4 leukemia): 11.1 µM
TGI (M14 melanoma): 3.81 µM
TGI (SK-MEL-28 melanoma): 25.1 µM
TGI (EKVX NSCLC): 32.3 µM
TGI (RXF 393 renal): 24.9 µM
TGI (MDA-MB-231 breast): 23.9 µM
TGI (UACC-62 melanoma): 27.1 µM
TGI (OVCAR-3 ovarian): 28.9 µM
TGI (A549 NSCLC): 23.3 µM
TGI (DU-145 prostate): 25.9 µM
TGI (NCI-H522 lung): 16.5 µM
TGI (HCT-116 colon): 16.3 µM
TGI (ACHN renal): 23.9 µM
TGI (HT29 colon): 23.3 µM
TGI (HS 578T breast): 6.57 µM
TGI (NCI-H23 lung): 27.6 µM
TGI (BT-549 breast): 26.3 µM
TGI (SNB-75 CNS): 21 µM

CCOC(=O)C1C(=O)CC(O)(c2ccccc2)C(C(=O)OCC)C1c1ccc(N(C)C)cc1 (configuration not stated)
TGI (SF-539 CNS): 37 µM
TGI (MDA-N): 33.7 µM
TGI (HL-60(TB) leukemia): 40 µM
TGI (A498 renal): > 100 µM
TGI (U251 CNS): > 81.2 µM
TGI (UACC-257 melanoma): > 100 µM
TGI (MCF7 breast): > 100 µM
TGI (IGROV1 ovarian): > 100 µM
TGI (RPMI-8226 leukemia): 37.4 µM
TGI (TK-10 renal): > 100 µM
TGI (SF-268 CNS): > 93.5 µM
TGI (SNB-19 CNS): > 79.9 µM
TGI (K-562 leukemia): > 100 µM
TGI (SF-295 CNS): 29.8 µM
TGI (OVCAR-5 ovarian): > 100 µM
TGI (HOP-92 NSCLC): > 81.7 µM
TGI (MALME-3M melanoma): > 85.6 µM
TGI (HCC-2998 colon): > 100 µM
TGI (NCI/ADR-RES ovarian): > 78.2 µM
TGI (LOX IMVI melanoma): > 100 µM
TGI (NCI-H226 lung): > 100 µM
TGI (SW-620 colon): > 100 µM
TGI (OVCAR-8 ovarian): > 65.9 µM
TGI (CAKI-1 renal): > 100 µM
TGI (OVCAR-4 ovarian): > 100 µM
TGI (MDA-MB-435): 25.9 µM
TGI (NCI-H460 lung): > 83.8 µM
TGI (PC-3 prostate): > 100 µM
TGI (SN12C renal): > 100 µM
TGI (COLO 205 colon): 53.5 µM
TGI (SR leukemia): 49.1 µM
TGI (HCT-15 colon): > 100 µM
TGI (KM12 colon): > 100 µM
TGI (HOP-62 NSCLC): > 88.8 µM
TGI (SK-MEL-2 melanoma): > 94 µM
TGI (CCRF-CEM leukemia): > 65.1 µM
TGI (SK-MEL-5 melanoma): 72.3 µM
TGI (SK-OV-3 ovarian): 52 µM
TGI (T-47D breast): > 92.5 µM
TGI (786-0 renal): > 100 µM
TGI (UO-31 renal): > 100 µM
TGI (MOLT-4 leukemia): > 84.1 µM
TGI (M14 melanoma): > 100 µM
TGI (SK-MEL-28 melanoma): > 100 µM
TGI (EKVX NSCLC): > 100 µM
TGI (RXF 393 renal): 44.4 µM
TGI (MDA-MB-231 breast): > 77.1 µM
TGI (UACC-62 melanoma): > 100 µM
TGI (OVCAR-3 ovarian): > 75.1 µM
TGI (A549 NSCLC): > 100 µM
TGI (DU-145 prostate): > 100 µM
TGI (NCI-H522 lung): 30.7 µM
TGI (HCT-116 colon): > 100 µM
TGI (ACHN renal): > 100 µM
TGI (HT29 colon): > 58.5 µM
TGI (HS 578T breast): 23.1 µM
TGI (NCI-H23 lung): > 93.9 µM
TGI (BT-549 breast): > 100 µM
TGI (SNB-75 CNS): 64.9 µM
